Our source for the GI50 and TGI values is PubChem BioAssay (NCI).

Where “and” joins values, the source holds several entries; their conditions need not be identical. Identical values can stand only once.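 Interpolation was linear, between the two tested concentrations surrounding the appropriate level; five concentrations were tested over 48 hours in 96-well plates. GI50 marks 50% less growth. TGI: total growth inhibition.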 Some results are limits rather than exact numbers.

Experiment in all cases: DTP human tumour cell line panel, 48 h
The subject of assay [1] is NCI-H226 lung.
The test system of assay [2] is SW-620 colon.
For assay [3], the system named is A549 NSCLC.
For assay [4], the system named is T-47D breast.
For assay [5], the system named is SK-MEL-2 melanoma.
Assay [6] deals with UO-31 renal.
Assay [7] relates to K-562 leukemia.
Assay [8] deals with MCF7 breast.

Regarding `NCc1ccc(-c2nc(-c3ccc(Cl)c(O)c3)c(-c3ccncc3)[nH]2)cc1`, the GI50 was more than 25 µM in assay [1]; 24.2 µM in assay [2]; more than 25 µM in assay [3]; more than 25 µM in assay [4]; 1.65 µM in assay [5]; 17.2 µM in assay [6]. The GI50 in assay [7] and in assay [8] was more than 25 µM in each case. Moreover, the TGI in assay [1] was more than 25 µM; in assay [2], more than 25 µM; in assay [3], more than 25 µM; in assay [4], more than 25 µM; in assay [5], 9.86 µM; in assay [6], more than 25 µM. The TGI in assay [7] and in assay [8] was more than 25 µM in each case.

As for `CN(C)CCCn1c2c(c3cc4c(cc3c1=O)OCO4)C(=O)c1ccccc1-2`, the GI50 in assay [1] is 3.25 µM; in assay [2], 0.85 µM; in assay [3], 0.105 µM; in assay [4], 22.7 µM; in assay [5], 18.4 µM; in assay [6], 4.19 µM. In addition, the 50% growth inhibitory concentration (GI50) in assay [7] is 0.0793 µM; in assay [8], 6.84 µM. The TGI was 11.3 µM in assay [1]; more than 39.9 µM in assay [2]; 2.43 µM in assay [3]; more than 100 µM in assay [4]; more than 59.5 µM in assay [5]; 39.9 µM in assay [6]. The compound also registered a TGI in assay [8] of more than 26.8 µM.

On to `N#CCNC(=O)c1ccc(-c2ccnc(Nc3ccc(N4CCOCC4)cc3)n2)cc1`, for which the GI50 in assay [1] is 0.754 µM and 0.531 µM; in assay [2] it was 3.97 µM and 3.46 µM; in assay [3], 4.47 µM and 1.75 µM; in assay [4] it was > 10 µM and 9.94 µM; in assay [5], 3.97 µM and 2.48 µM; in assay [6], 1.1 µM and 0.36 µM. In addition, the GI50 in assay [8] was 1.78 µM and 1.54 µM. In addition, the TGI in assay [1] is 7.01 µM and 21.1 µM; in assay [2], more than 100 µM; in assay [3], > 10 µM and 12.4 µM; in assay [4] it was > 10 µM and 99.8 µM; in assay [5], > 10 µM and 19 µM; in assay [6], 4.19 µM and 3.4 µM. The TGI is more than 100 µM in assay [7]; > 10 µM and 21.4 µM in assay [8].

Regarding `COc1ccc2c(c1)C(=O)c1c-2c(=O)n(CCCN(C)C)c2cc(OC)c(OC)cc12`, the GI50 was 3.39 µM in assay [1]; 1.71 µM in assay [2]; 7.03 µM in assay [3]; more than 100 µM in assay [4]; more than 100 µM in assay [5]; 3.4 µM in assay [6]. Further, the GI50 is 4.75 µM in assay [7] and 0.141 µM in assay [8]. Besides, the concentration for total growth inhibition (TGI) in assay [1] is more than 100 µM; in assay [2], 20.8 µM; in assay [3], 22 µM; in assay [4], more than 100 µM; in assay [5], more than 100 µM; in assay [6], 16.1 µM. The total growth inhibition concentration (TGI) in assay [7] turned out to be 24 µM; in assay [8], 15.3 µM.

Consider `c1ccc2c(CNCCN3CCNCC3)c3ccccc3c(CNCCN3CCNCC3)c2c1`, for which the GI50 in assay [1] is 10.3 µM; in assay [2], 16.4 µM; in assay [3], 35.1 µM; in assay [4], 19.9 µM; in assay [5] it was 29 µM; in assay [6], more than 100 µM. The GI50 in assay [7] was 10.3 µM; in assay [8], 11.5 µM. Also, the TGI was 37.6 µM in assay [1]; 49.3 µM in assay [2]; more than 100 µM in assay [3]; 81.9 µM in assay [4]; more than 100 µM in assay [5]; more than 100 µM in assay [6]. For the same compound, the values for the TGI in assay [7] and in assay [8] were 32.7 µM and 50.2 µM, respectively.

Regarding `O=C(c1cc(Cc2n[nH]c(=O)c3ccccc23)ccc1F)N1CCN(C(=O)C2CC2)CC1`, the GI50 in assay [1] was 41.3 µM and 48.8 µM; in assay [2], 64.4 µM and > 94.1 µM; in assay [3] it was more than 100 µM; in assay [4] it was 31.5 µM; in assay [5], more than 100 µM; in assay [6] it was 71.7 µM and 40.7 µM. The GI50 in assay [7] was 54.5 µM and > 66.4 µM; in assay [8] it was 47.4 µM and 34.2 µM. Moreover, the TGI in assay [1], in assay [2], in assay [3], in assay [4], in assay [5] and in assay [6] was more than 100 µM in each case. For the same compound, the total growth inhibition concentration (TGI) in assay [7] and in assay [8] was more than 100 µM in each case.

On to `CC(=O)N(O)c1ccc(/C=C/c2ccccc2)cc1`, for which the GI50 was 0.0656 µM in assay [1]; 1.15 µM in assay [2]; 1.26 µM in assay [3]; 0.24 µM in assay [4]; 5.71 µM in assay [5]; 0.759 µM in assay [6]. In addition, the GI50 is 7.39 µM in assay [7] and 0.548 µM in assay [8]. In addition, the TGI is 0.386 µM in assay [1]; more than 100 µM in assay [2]; 15.5 µM in assay [3]; more than 41.8 µM in assay [4]; 37.9 µM in assay [5]; 2.9 µM in assay [6]. In addition, the TGI in assay [7] and in assay [8] was more than 100 µM each time.

`Fc1ccc2nc(-c3nc(-c4ccccc4)n4ccccc34)[nH]c2c1`: the GI50 in assay [1] was 1.8 µM; in assay [2], 3.97 µM; in assay [3] it was 2.68 µM; in assay [4], 1.06 µM; in assay [5] it was 2.85 µM; in assay [6], 1.75 µM. Besides, the GI50 in assay [7] is 3.47 µM; in assay [8] it was 1.37 µM. For the same compound, the TGI was 5.8 µM in assay [1]; 17.3 µM in assay [2]; 7.98 µM in assay [3]; 4.76 µM in assay [4]; 7.83 µM in assay [5]; 5.15 µM in assay [6]. Further, the TGI is more than 100 µM in assay [7] and 5.59 µM in assay [8].

As to `CCn1ccnc1C(=O)/C=C/c1ccc(CC(=O)Nc2ccc(F)cc2)cc1`, the GI50 was 3.61 µM in assay [1]; 4.29 µM in assay [2]; 4.16 µM in assay [3]; 3.79 µM in assay [4]; 6.26 µM in assay [5]; 2.65 µM in assay [6]. Also, the GI50 was 2.06 µM in assay [7] and 2.52 µM in assay [8]. Moreover, the TGI was 9.53 µM in assay [1]; more than 16.7 µM in assay [2]; 12.7 µM in assay [3]; more than 16.7 µM in assay [4]; more than 16.7 µM in assay [5]; 10.5 µM in assay [6]. Further, the TGI in assay [7] and in assay [8] was more than 16.7 µM each time.

By GI50 is commonly meant the concentration at which growth is held to half of that of the control. As usually defined, the TGI is the concentration at which net growth stops. Read a low TGI as greater sensitivity of the cells.
